# Assay results as given in patent US5036077A, “1-(benzylpiperidino)propan-2-ol derivatives, their preparation, their use as antimicrobial agents and the products in which they are present” (Sanofi, priority 1987, dated 1991).
# Like-named read-outs stand apart in the source and are kept apart here.
# Tests used:
# Type in all cases: cell-based
# [1] = system: Staphylococcus aureus CNCM 53154; assay: Minimum bactericidal concentration, 30 min contact, strain 1; conditions: CNCM53154, 0.5 h, read-out: MBC, strain 1
# Method: (§1) A bacterial inoculum is brought into contact with different dilutions of the test product for a limited time of 30 minutes. When the contact time has ended, an aliquot of the bacterial suspension/product mixture is deposited on the surface of a gelose culture medium containing an agent for neutralizing the antibacterial activity of the product. The bactericidal concentration chosen is the minimum concentration of the product which is necessary to prevent bacterial growth. This concentration is expressed in μg/ml.
# 1 - Staphylococcus aureus CNCM 53154;
# (§2) The strains are maintained on Tryptic Soy Agar (TSA) marketed by Difco.
# (§3) After 24 hours of culture at 37° C., the microbial growth is harvested with the aid of glass beads and 10 ml of diluent containing 1 g of tryptone and 8.5 g of sodium chloride in 1000 ml of distilled water. The suspension formed is shaken and the percentage transmission of light at 620 nm is measured on a spectrophotometer:
# (§4) The bacterial inoculum corresponds to a 1/20 dilution of this bacterial suspension.
# (§5) Plates containing cups receive different dilutions of the test product. These dilutions of the test product are brought into contact with the different bacterial suspensions using a multiple-site inoculator. After a contact time of 30 minutes, aliquots are transferred by means of this inoculator to the surface of a gelose medium (TSA) placed in petri dishes and containing an agent for neutralizing the activity, namely 20 g of lubrol W, 2.5 g of Tween 80, 2.5 g of sodium thiosulfate and 1% of egg yolk in 1000 ml of TSA (Difco). A reference for the efficacy of the neutralizing agent is prepared for each test product by depositing an aliquot of the dilution of the test product on the surface of the culture medium. After drying, the corresponding inoculum is deposited in the same place. A reference inoculum is prepared on a gelose medium with and without neutralizing agent. The results are read off after 48 hours of incubation at 37° C.
# (§6) They indicate the minimum bactericidal concentrations (MBC) for strains 1, 2, 3 and 4 and the minimum fungicidal concentrations (MFC) for strain 5.
# [2] = system: Streptococcus faecalis CNCM 5855; assay: Minimum bactericidal concentration, 30 min contact, strain 2; conditions: Enterococcus faecalis, CNCM5855, 0.5 h, read-out: MBC, strain 2
# Method: as §1
# 2 - Streptococcus faecalis CNCM 5855;
# as §2, §3, §4, §5, §6
# [3] = system: Pseudomonas aeruginosa CNCM A22; assay: Minimum bactericidal concentration, 30 min contact, strain 3; conditions: CNCMA22, 0.5 h, read-out: MBC, strain 3
# Method: as §1
# 3 - Pseudomonas aeruginosa CNCM A22;
# as §2, §3, §4, §5, §6
# [4] = system: Escherichia coli CNCM 54127; assay: Minimum bactericidal concentration, 30 min contact, strain 4; conditions: CNCM54127, 0.5 h, read-out: MBC, strain 4
# Method: as §1
# 4 - Escherichia coli CNCM 54127.
# as §2, §3, §4, §5, §6
# [5] = system: Candida albicans CNCM 1180; assay: Minimum fungicidal concentration, strain 5; conditions: CNCM1180, 0.5 h, read-out: MFC, strain 5
# Method: as §1, §5
# (§7) The antifungal activity of the products according to the invention was also determined using the method described above. The representative strain of yeast selected for the study was Candida albicans CNCM 1180 (strain 5).
# This is maintained on a gelose medium of Sabouraud Dextrose Agar, marketed by Difco. The technique is identical to that described for studying the antibacterial activity. After 48 hours of culture at 37° C., the microbial growth is harvested with the aid of glass beads and 5 ml of diluent containing 1 g of tryptone and 8.5 g of sodium chloride in 1000 ml of distilled water; a further 5 ml of the diluent are then added. In a spectrophotometer, this suspension gives a 2 to 3% transmission of light at 620 nm. The inoculum corresponds to a 1/10 dilution of this microbial suspension. A 1/100 dilution of this suspension, observed between a microscope slide and cover slip through a lens of magnification 40, should show 10 cells per field, which corresponds to 1 000 000 yeasts per ml.
# as §6
# [6] = system: bacterial strains and fungal strain tested; assay: Bactericidal and fungicidal activities on the strains tested (overall statement); conditions: bacterial strains 1-4 and fungal strain 5
# Method: The bactericidal and fungicidal activities of the products according to the invention were studied on different strains.
# as §1, §5, §7
# By way of comparison, 3-aryloxy-1-piperidinopropan-2-ol derivatives described in the literature, or similar to the compounds described, were prepared and the bactericidal and fungicidal activities of these compounds and of propranolol were measured on the same strains and under the same conditions as for the products according to the invention. The results are reported in Table II after those obtained with the products according to the invention.
# [7] = Staphylococcus aureus CNCM 53154, contact time 30 minutes, solubilizing agent (water, TEG or acetone) given per product
# [8] = Streptococcus faecalis CNCM 5855, contact time 30 minutes, solubilizing agent given per product
# [9] = Pseudomonas aeruginosa CNCM A22, contact time 30 minutes, solubilizing agent given per product
# [10] = Escherichia coli CNCM 54127, contact time 30 minutes, solubilizing agent given per product
# [11] = Candida albicans CNCM 1180, contact time 30 minutes, solubilizing agent given per product
Structure (SMILES),"MBC [1, 7] [µg/mL]","MBC [2, 8] [µg/mL]","MBC [3, 9] [µg/mL]","MBC [4, 10] [µg/mL]","MFC [5, 11] [µg/mL]",antimicrobial activity (in words) [6],MBC ([1]; Staphylococcus aureus) [µg/mL],MBC [2] [µg/mL],MBC ([3]; Pseudomonas aeruginosa) [µg/mL],MBC ([4]; Escherichia coli) [µg/mL],MFC ([5]; Candida albicans) [µg/mL]
"CC1CCN(CC(O)COc2ccc(Br)cc2)CC1.Cl (stereo not drawn) [Product A, 3-(4-bromophenoxy)-1-(4-methylpiperidino)propan-2-ol hydrochloride, reference compound]",> 2000,1000,1000,1000,5000,no antimicrobial activity,,,,,
"Cl.OC(CSc1ccc(Br)cc1)CN1CCCCC1 (stereo not drawn) [Product C, 3-(4-bromophenylthio)-1-piperidinopropan-2-ol hydrochloride, reference compound]",> 1000,> 1000,> 1000,> 1000,1000,no antimicrobial activity,,,,,
"Cl.OC(COc1ccccc1)CN1CCC(c2ccccc2)CC1 (stereo not drawn) [Product B, 3-phenoxy-1-(4-phenylpiperidino)propan-2-ol hydrochloride, reference compound]",> 1000,> 1000,> 1000,> 1000,> 1000,no antimicrobial activity,,,,,
"CC(C)NCC(O)COc1cccc2ccccc12 (stereo not drawn) [Propranolol, propranolol, reference compound]",,,,,,no antimicrobial activity,5000,1000,1000,1000,5000
